According to patent US20170239212A1, “[…] AND USE THEREOF AS ANTIVIRAL AGENTS” (priority 2014, published 2017):
Like-named read-outs stand apart in the source and are kept apart here.

Experiments:
[1] = ester bond, 2,4,6-trichlorobenzoyl chloride / Et3N / DMAP, toluene, 40.0 °C, 14.0 h
[2] = system: HIV long terminal repeat (LTR) promoter; assay: cells; format: cell-based; details: Jurkat cells; for EC50: Human immunodeficiency virus 1, LTR-luciferase, incubated 24, 48 and 72 hours (time of the listed values not stated); for selectivity ratio: human; for selectivity ratio / Selectivity (CC50:EC50): ratio of the CC50 to the EC50
Procedure: (§1) The compounds were also tested in the T cell derived Jurkat cell line transfected with a luciferase reporter under control of an HIV long terminal repeat (LTR) promoter. Specifically, EC50 and CC50 values were determined in parallel using 10 concentrations of compound from 3 fold serial dilutions starting a 5 uM as the highest concentration. Cells and media were added to compounds with a final concentration of DMSO of 1% and incubated at 37° C., 5% CO2 for 24, 48 and 72 hours. EC50 was measured by induced luciferase activity detected by the use of the Steady-Glo® Luciferase reagent (PROMEGA) with an EnVision (Perkin-Elmer) plate reader. CC50 was determined by the dose dependent knock down of cellular ATP detected by the use of CellTiter-Glo® Luminescent Cell Viability reagent (PROMEGA) with an EnVision (Perkin-Elmer) plate reader.

[3] = in vitro; format: cell-based; details: human; Jurkat cells, knock down of cellular ATP
Procedure: as §1

[4] = system: HIV long terminal repeat (LTR) promoter; assay: HOS LTR stimulation assay (luciferase reporter); format: cell-based; details: HOS cells
Procedure: In the assay, non T cell derived human osteosarcoma (HOS) cells are transfected with a luciferase reporter under control of an HIV long terminal repeat (LTR) promoter. Compounds that stimulate the HIV LTR promoter will produce luciferase in a dose dependent manner.
as §1, with “Specifically,” for “The compounds were also tested in the T cell derived Jurkat cell line transfected with a luciferase reporter under control of an HIV long terminal repeat (LTR) promoter. Specifically,”
The error bars represent the average and the standard error of the mean of at least three independent experiments.

[5] = system: human osteosarcoma (HOS) cells; assay: HOS cell viability (CellTiter-Glo, cellular ATP); format: cell-based; parameters: unit not given here; details: knock down of cellular ATP
Procedure: as §1, with “Specifically,” for “The compounds were also tested in the T cell derived Jurkat cell line transfected with a luciferase reporter under control of an HIV long terminal repeat (LTR) promoter. Specifically,”

[6] = system: U937 cells; assay: Attachment of U937 cells; format: cell-based, human; details: 72 hours
Procedure: (§2) U937 cells (Sundstrom, C.; Nilsson, K.: Establishment and characterization of a human histiocytic lymphoma cell line (U-937). Int. J. Cancer 1976, 17: 565-577), purchased from ATCC (Manassas, Va.) and cultured in RPMI-1640 medium supplemented with 10% FBS (ATCC, Manassas, Va.), were plated in 35 mm dishes at a density of 2×10^5 living cells/ml and treated with different concentrations of the drugs or DMSO. After 72 hours, the number of cells in the supernatant (non-attached cells) and the number of attached cells (after trypsinization) were counted using a Beckman particle counter (Beckman Coulter Inc., Fullerton, Calif.). The number of attached cells is expressed as percent of total cells (FIGS. 8-10).
(§3) U937 cells were treated with PMA (0.1-100 nM), bryostatin 1 (1-1000 nM), the indicated compound (1-1000 nM), 10 nM PMA with different concentrations of bryostatin 1 (1-1000 nM) or 10 nM PMA with different concentrations of indicated compound (1-1000 nM) for 72 hours. The number of attached cells and total cells were counted and the attached cells were graphed as percent of total cells. The bars and error bars represent the average and the standard error of the mean of five independent experiment (FIGS. 8-10).
(§4) U937 cells (Sundstrom and Nilsson, 1976), purchased from ATCC (Manassas, Va.) and cultured in RPMI-1640 medium supplemented with 10% FBS (ATCC, Manassas, Va.), were plated in 35 mm dishes at a density of 1×10^5 living cells/ml and treated with different concentrations of the drugs or DMSO. After 72 hours, the number of cells in the supernatant (non-attached cells) and the number of attached cells (after trypsinization) were counted using a particle counter. The number of attached cells is expressed as percent of total cells.
(§5) U937 cells were treated with PMA (0.01-100 nM), bryostatin 1 (0.1-1000 nM), analogue 12 (MERLE 28) (0.1-1000 nM), 10 nM PMA with different concentrations of bryostatin 1 (0.1-1000 nM) or 10 nM PMA with different concentrations of analogue 12 (0.1-1000 nM). The number of attached cells and total cells were counted and the attached cells were graphed as percent of total cells. The bars and error bars represent the average and the standard error of the mean of at least three independent experiments.
as §4
as §3, with “at least three” for “five”, “experiments.” for “experiment (FIGS. 8-10).”

[7] = system: U937 cells; assay: Inhibition of U937 cell proliferation; format: cell-based, human
Procedure: as §2
as §3, with “nM).” for “nM) for 72 hours.”, “attached and non-attached” for “attached”, “was” for “and total cells were”, “number” for “attached cells were graphed as percent”, “cells was expressed as % of control.” for “cells.”, “experiments” for “experiment”
as §4
as §5, with “The numbers” for “The number”, “attached” for “attached cells”, “and non-attached” for “and total”, “the number” for “the attached cells were graphed as percent”, “total cells was expressed as % of control.” for “total cells.”
as §4
U937 cells were treated with PMA (0.1-100 nM), bryostatin 1 (1-1000 nM), the indicated compound (1-1000 nM), 10 nM PMA with different concentrations of bryostatin 1 (1-1000 nM) or 10 nM PMA with different concentrations of indicated compound (1-1000 nM). The number of attached and non-attached cells was counted and the number of total cells was expressed as % of control. The bars and error bars represent the average and the standard error of the mean of at least three independent experiments.

[8] = 10 nM PMA with different concentrations of compound

Question: With C=C1C[C@@H]2C[C@@H]3CC(=C)C[C@H](/C=C/C(C)(C)[C@]4(OC)O[C@@H](C/C(=C\C(=O)OC)[C@@H]4OC(=O)/C=C/C=C/CCC)C[C@H]([C@@H](C)OCOCc4ccccc4)OC(=O)C[C@H](OCc4ccc(OC)cc4)C[C@H](C1)O2)O3 as the compound, how does the ring closure, yield of all isomers ([1]; from C=C1C[C@H](C[C@@H]2CC(=C)C[C@H](/C=C/C(C)(C)[C@]3(OC)O[C@H](C[C@@H](O)[C@@H](C)OCOCc4ccccc4)C/C(=C\C(=O)OC)[C@@H]3OC(=O)/C=C/C=C/CCC)O2)O[C@H](C[C@H](CC(=O)O)OCc2ccc(OC)cc2)C1, 0.74 mM, 2 steps) read?
Answer: The ring closure, yield of all isomers was 52%.

Question: For C=C1C[C@@H]2C[C@@H]3CC(=C)C[C@H](/C=C/C(C)(C)[C@]4(OC)O[C@@H](C/C(=C\C(=O)OC)[C@@H]4OC(C)=O)C[C@H]([C@@H](C)OCOCc4ccccc4)OC(=O)C[C@H](OCc4ccc(OC)cc4)C[C@H](C1)O2)O3, which ring closure, yield of all isomers ([1]; from C=C1C[C@H](C[C@@H]2CC(=C)C[C@H](/C=C/C(C)(C)[C@]3(OC)O[C@H](C[C@@H](O)[C@@H](C)OCOCc4ccccc4)C/C(=C\C(=O)OC)[C@@H]3OC(C)=O)O2)O[C@H](C[C@H](CC(=O)O)OCc2ccc(OC)cc2)C1, 0.97 mM, 2 steps) is on record?
Answer: The ring closure, yield of all isomers was 58%.

Question: With C=C1C[C@@H]2C[C@@H]3CC(=C)C[C@H](/C=C/C(C)(C)[C@]4(OC)O[C@@H](CCC4=O)C[C@H]([C@@H](C)OCOCc4ccccc4)OC(=O)C[C@H](OCc4ccc(OC)cc4)C[C@H](C1)O2)O3 as the compound, how does the ring closure, yield of all isomers ([1]; from C=C1C[C@H](C[C@@H]2CC(=C)C[C@H](/C=C/C(C)(C)[C@]3(OC)O[C@H](C[C@@H](O)[C@@H](C)OCOCc4ccccc4)CCC3=O)O2)O[C@H](C[C@H](CC(=O)O)OCc2ccc(OC)cc2)C1, 0.85 mM, 2 steps) read?
Answer: The ring closure, yield of all isomers was 87%.

Question: With C=C1C[C@H]2C[C@H]3C[C@@H](O[Si](CC)(CC)CC)C[C@@H](C[C@@H](OCc4ccc(OC)cc4)CC(=O)O[C@@H]([C@@H](C)OCOCc4ccccc4)C[C@@H]4C/C(=C\C(=O)OC)[C@H](OC(=O)CCCCCCC)[C@@](OC)(O4)C(C)(C)/C=C/[C@@H](C1)O2)O3 as the compound, how does the ring closure, yield of all isomers ([1]; from C=C1C[C@@H](C[C@H]2C[C@@H](O[Si](CC)(CC)CC)C[C@@H](C[C@H](CC(=O)O)OCc3ccc(OC)cc3)O2)O[C@@H](/C=C/C(C)(C)[C@]2(OC)O[C@H](C[C@@H](O)[C@@H](C)OCOCc3ccccc3)C/C(=C\C(=O)OC)[C@@H]2OC(=O)CCCCCCC)C1, 0.79 mM) read?
Answer: Its ring closure, yield of all isomers is 91%.

Question: Which ring closure, yield of all isomers ([1]; from C=C1C[C@@H](C[C@]2(OC)O[C@H](C[C@H](CC(=O)O)O[Si](CC)(CC)CC)C[C@H](OC(C)=O)C2(C)C)O[C@@H](/C=C/C(C)(C)[C@]2(OC)O[C@H](C[C@@H](O)[C@@H](C)OCOCc3ccccc3)C/C(=C\C(=O)OC)[C@@H]2OC(=O)/C=C/C=C/CCC)C1, 0.62 mM, 2 steps) does the source give for C=C1C[C@H]2C[C@]3(OC)O[C@H](C[C@@H](O[Si](CC)(CC)CC)CC(=O)O[C@@H]([C@@H](C)OCOCc4ccccc4)C[C@@H]4C/C(=C\C(=O)OC)[C@H](OC(=O)/C=C/C=C/CCC)[C@@](OC)(O4)C(C)(C)/C=C/[C@@H](C1)O2)C[C@H](OC(C)=O)C3(C)C here?
Answer: Its ring closure, yield of all isomers is 62%.

Question: What does the source list for C=C1C[C@@H]2C[C@@H]3CC(=C)C[C@H](/C=C/C(C)(C)[C@]4(O)O[C@@H](C/C(=C\C(=O)OC)[C@@H]4OC(=O)/C=C/C=C/CCC)C[C@H]([C@@H](C)O)OC(=O)C[C@H](O)C[C@H](C1)O2)O3 [MERLE 23]?
Answer: EC50 [2]: 0.2 nM; selectivity ratio [2]: 25; CC50 [3]: 5 nM; Max signal (% of control) ([4]; LTR-luciferase signal): 166 % of control; Conc (uM) at Max ([4]; concentration at maximal LTR-luciferase signal): 0.07 µM; EC50 ([4]; Human immunodeficiency virus 1, LTR-luciferase, incubated 24, 48 and 72 hours (time of the listed values not stated), read-out: EC50): 2 nM; CCEC50 [5]: 39.57

Question: Which results are given for C=C1C[C@H]2CC3(O)O[C@H](C[C@@H](O)CC(=O)O[C@@H]([C@@H](C)O)C[C@@H]4C/C(=C\C(=O)OC)[C@H](OC(=O)/C=C/C=C/CCC)[C@@](O)(O4)C(C)(C)/C=C/[C@@H](C1)O2)C[C@H](OC(C)=O)C3(C)C [MERLE 28]?
Answer: Block of PMA-induced attachment of U937 cells [6, 8]: blocks the effect of the phorbol ester when the two agents are administered together; Attachment of U937 cells (attached cells as percent of total) ([6]; compound alone): approaches that of bryostatin 1 itself; Block of PMA inhibition of U937 cell proliferation [7, 8]: Both of these aspects of bryostatin 1 induced biological response are captured; Inhibition of U937 cell proliferation (total cells as % of control) ([7]; compound alone, 72 hours): very similar to those for bryostatin 1

Question: With C=C1CC2C[C@@H](O)CC(=O)O[C@@H]([C@@H](C)O)C[C@@H]3C/C(=C\C(=O)OC)[C@H](OC(C)=O)[C@@](O)(O3)C(C)(C)/C=C/[C@H]3CC(=C)C[C@@H](C[C@@H](C1)O2)O3 [MERLE 35] as the compound, how does the EC50 [2] read?
Answer: Its EC50 is 10 nM.

Question: And the “Selectivity (CC50:EC50)” value [2]?
Answer: The value was “greater than one”.

Question: And the selectivity ratio [2]?
Answer: Its selectivity ratio is 5.

Question: And the CC50 [3]?
Answer: The CC50 was 50 nM.

Question: What does the source list for C=C1CC2C[C@@H](O)CC(=O)O[C@@H]([C@@H](C)O)C[C@@H]3C/C(=C\C(=O)OC)[C@H](OC(=O)CCCCCN(C)C)[C@@](O)(O3)C(C)(C)/C=C/[C@H]3CC(=C)C[C@@H](C[C@@H](C1)O2)O3 [MERLE 37]?
Answer: EC50 [2]: 80 nM; Selectivity (CC50:EC50) [2]: greater than one; selectivity ratio [2]: 6.9; CC50 [3]: 550 nM
